Assay results published in patent US5030638A, “Method of antiviral enhancement” (priority 1990, dated 1991).
≈ marks a conversion by molar mass, not a printed value. Like-named read-outs stand apart in the source and are kept apart here.

How the values were obtained:
HIV = conditions: cited from earlier work
HIV-1, strain HTLV-IIIB = experiment: Reduction of cytopathogenic effect (CPE) in HIV-1 infected CEM cells, MTT assay; format: cell-based
Protocol: These tests involved plating of susceptible human host cells which are syncytium-sensitive with and without virus in microculture plates, adding various concentrations of the test compound, incubating the plates for 9 days (during which time infected, non-drug treated control cells are largely or totally destroyed by the virus), and then determining the number of remaining viable cells using a colorimetric endpoint.
Tissue culture plates were incubated at 37° C. in a humidified, 5% CO2 atmosphere and observed microscopically for toxicity and/or cytopathogenic effect (CPE). At 2 and 6 days after infection, fresh dilutions of each test article were prepared from the frozen stock, and a 20 μl volume of each dilution (prepared as a 10× concentration was added to the appropriate wells of both infected and uninfected cells.
On the 9th day post-infection, the cells in each well were resuspended and a 100 μl sample of each cell suspension was removed for use in an MTT assay. A 20 μl volume of a 5 mg/ml solution of 3-(4,5-dimethylthiazol-2-yl)-2,5-diphenyltetrazolium bromide (MTT) was added to each 100 μl cell suspension, and the cells were incubated at 37° C. in 5% CO2 for 4 hours. […] A 100 μl volume of a solution of 10% sodium dodecyl sulfate in 0.01N hydrochloric acid wa added to each sample, and the samples were incubated overnight. The absorbance at 590 nm was determined for each sample using a Molecular Devices Vmax microplate reader. This assay detects drug-induced suppression of viral CPE, as well as drug cytotoxicity, by measuring the generation of MTT-formazan by surviving cells.
Assays were done in 96-well tissue culture plates. CEM cells were treated with polybrene at a concentration of 2 μg/ml, and an 80 μl volume of cells (1×10^4 cells) was dispensed into each well. A 100 μl volume of each test article dilution (prepared as a 2× concentration) was added to 5 wells of cells, and the cells were incubated at 37° C. for 1 hour. A frozen culture of HIV-1, strain HTLV-IIIB, was diluted in culture medium to a concentration of 5×10^4 TCID50 per ml, and a 20 μl volume (containing 10^3 TCID50 of virus) was added to 3 of the wells for each test article concentration. […] A 20 μl volume of normal culture medium was added to the remaining wells to allow evaluation of cytotoxicity. Each plate contained 6 wells of untreated, uninfected, cell control samples and 6 wells of untreated, infected, virus control samples. Dideoxycytidine (DDC) and dideoxyadenosine (DDA) were included as positive control compounds.

yeast α-glucosidase = molecular target: T1, yeast α-glucosidase (Saccharomyces cerevisiae, UniProt P53341); experiment: Alpha-glucosidase inhibition assay, pH 7.4; format: biochemical
T1 construct: purchased Sigma
Protocol: (§1) Yeast alpha-glucosidase and almond beta-glucosidase activities were measured by a modification of the method of Evans, et al., Phytochemistry 22, 768-770 (1983). The modifications included 1) assay of activities at pH 7.4 in HEPES (N-2-hydroxyethylpiperazine-N'-2-ethanesulfonic acid) buffer, 2) measurement in 96 well microtiter plates and 3) inclusion of 10% DMSO in control and test samples.
(§2) The release of p-nitrophenol from the substrate p-nitrophenylglycoside was measured spectrophotometrically in the presence and absence of test compound. Each assay included a known inhibitor of the enzyme as a standard.
To 100 μl 50 mM HEPES buffer, pH 7.4, in a microtiter plate, add 20 μl test compound in DMSO (DMSO alone in control), 40 μl (0.013 units) yeast alpha-glucosidase (Sigma) in HEPES buffer and pre-incubate at room temperature for 15 minutes. Add 40 μl 1.25 mM p-nitrophenyl-alpha-D-glucopyranoside (Sigma) in HEPES buffer, as substrate, and monitor absorbance change at 405 nm in Biotek EIA Auto-reader. Absorption change was measured at 15 to 25 minutes (reaction was linear for at least 30 minutes). Each sample was tested in triplicate. […] Deoxynojirimycin was used as standard inhibitor.

almond β-glucosidase [1] = experiment: Beta-glucosidase inhibition assay, pH 7.4; format: biochemical; conditions: for Inhibition Index (first, head is drawing 3) / Inhibition Index (second, head is drawing 4): ratio of IC50 values; for Inhibition Index (first, head is drawing 3): numerically almond pH 4.8 / almond pH 7.4; for Inhibition Index (second, head is drawing 4): numerically yeast α pH 7.4 / almond β pH 7.4; for IC50: read-out: Enzyme Inhibition-IC50, Almond β-Glucosidase pH 7.4
Protocol: as §1, §2
To 100 μl 50 mM HEPES buffer, pH 7.4, in a microtiter plate, add 20 μl test compound in DMSO (DMSO alone in control), 40 μl (0.136 units) beta-glucosidase (Sigma) in HEPES buffer and pre-incubate at room temperature for 15 minutes. Add 40 μl 1.25 mM p-nitrophenyl-beta-D-glucopyranoside in HEPES buffer, as substrate and monitor absorbance change at 405 nm in a Biotek EIA Autoreader. Absorption change was measured at 15 to 25 minutes (reaction is linear for at least 30 minutes). Each sample was tested in triplicate. […] Castanospermine was used as standard inhibitor.

almond β-glucosidase [2] = experiment: Beta-glucosidase inhibition assay, pH 4.8; format: biochemical; conditions: read-out: Enzyme Inhibition-IC50, Almond β-Glucosidase pH 4.8
Protocol: as §1, §2
To 100 μl 50 mM sodium citrate buffer, pH 4.8, in a microtiter plate, add 15 μl test compound in DMSO (DMSO alone in control), 20 μl (0.017 units) beta-glucosidase (Sigma) in citrate buffer and pre-incubate at room temperature for 15 minutes. Add 25 μl 2.50 mM p-nitrophenyl-beta-D-glucopyranside in citrate buffer, as substrate. […] Add 50 μl 0.4M NaOH. Read absorption change at 405 nm in a Biotek EIA Autoreader. Each sample was tested in triplicate. […] Castanospermine was used as standard inhibitor.

T1 sequence (P53341 whole entry): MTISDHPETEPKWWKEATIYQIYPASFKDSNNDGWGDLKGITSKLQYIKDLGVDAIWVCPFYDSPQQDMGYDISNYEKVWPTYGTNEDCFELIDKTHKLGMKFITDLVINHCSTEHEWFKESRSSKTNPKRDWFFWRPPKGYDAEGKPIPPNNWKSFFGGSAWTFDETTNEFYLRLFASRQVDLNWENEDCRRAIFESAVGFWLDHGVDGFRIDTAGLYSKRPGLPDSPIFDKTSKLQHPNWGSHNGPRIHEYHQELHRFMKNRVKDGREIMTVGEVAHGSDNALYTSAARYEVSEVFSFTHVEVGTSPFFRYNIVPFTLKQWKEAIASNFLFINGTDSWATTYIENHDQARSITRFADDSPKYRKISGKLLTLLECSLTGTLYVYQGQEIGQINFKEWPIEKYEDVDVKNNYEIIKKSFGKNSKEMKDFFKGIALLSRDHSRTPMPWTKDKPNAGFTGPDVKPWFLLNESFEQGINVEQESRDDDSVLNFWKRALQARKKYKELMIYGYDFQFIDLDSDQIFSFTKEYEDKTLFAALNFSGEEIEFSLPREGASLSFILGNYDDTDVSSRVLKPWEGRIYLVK

Compound: Cc1cn([C@H]2C[C@H](N=[N+]=[N-])[C@@H](CO)O2)c(=O)[nH]c1=O [AZT, 3'-azido-3'-deoxythymidine]
- HIV inhibitory / antiviral activity (HIV; literature): inhibit replication of the virus in vitro

Compound: Nc1ccn([C@H]2CC[C@@H](CO)O2)c(=O)n1 [DDC, Dideoxycytidine, reference compound]
- inhibition at 0.01 µg/mL (HIV-1, strain HTLV-IIIB; Human immunodeficiency virus 1, IIIB, CCRF-CEM, 216 h, 0.01 μg/ml, read-out: Percent Reduction of CPE): 41.5%
- inhibition at 0.032 µg/mL (HIV-1, strain HTLV-IIIB; Human immunodeficiency virus 1, IIIB, CCRF-CEM, 216 h, 0.032 μg/ml, read-out: Percent Reduction of CPE): 73.9%
- IC50 (HIV-1, strain HTLV-IIIB; Human immunodeficiency virus 1, IIIB, CCRF-CEM, 216 h, HIV-1, CEM cells, reduction of CPE, read-out: ID50 (median inhibitory dose)): 0.01 µg/mL (≈ 0.0473 µM)

Compound: O=c1[nH]cnc2c1ncn2[C@H]1CC[C@@H](CO)O1 [DDI, reference compound]
- Percent Reduction of CPE (HIV-1, strain HTLV-IIIB; 1.0 μg/ml, 12960 min): 28.3%
- Percent Reduction of CPE (HIV-1, strain HTLV-IIIB; 3.2 μg/ml, 12960 min): 49.6%
- Percent Reduction of CPE (HIV-1, strain HTLV-IIIB; 10 μg/ml, 12960 min): 75.6%
- ID50 (median inhibitory dose) (HIV-1, strain HTLV-IIIB; HIV-1, CEM cells, reduction of CPE, 12960 min): 3.0 µg/mL (≈ 12.7 µM)

Compound: CCN1C[C@H](O)[C@@H](O)[C@H](O)[C@H]1CO [Ethyl, reference compound]
- inhibition at 1000 µM (yeast α-glucosidase; pH 7.4, read-out: Enzyme Inhibition, Yeast α-Glucosidase pH 7.4): 51%
- Enzyme Inhibition, Almond β-Glucosidase pH 7.4 (almond β-glucosidase [1]; pH 7.4, at 1 mM): 67%
- Inhibition Index (first, head is drawing 3) (almond β-glucosidase [1]): ~ 1
- Inhibition Index (second, head is drawing 4) (almond β-glucosidase [1]): ~ 1
- IC50 (almond β-glucosidase [2]): ~1000 µM
- reduction of the yield of infectious HIV (HIV; Karpas et al.): three

Compound: CCCCCN1C[C@H](O)[C@@H](O)[C@H](O)[C@H]1CO [Example 1, 1,5-(Pentylimino)-1,5-dideoxy-D-glucitol]
- IC50 (yeast α-glucosidase; pH 7.4, read-out: Enzyme Inhibition-IC50, Yeast α-Glucosidase pH 7.4): 444 µM
- IC50 (almond β-glucosidase [1]; pH 7.4): 15 µM
- Inhibition Index (first, head is drawing 3) (almond β-glucosidase [1]): 28.2
- Inhibition Index (second, head is drawing 4) (almond β-glucosidase [1]): 29.5
- IC50 (almond β-glucosidase [2]): 423 µM

Compound: O[C@@H]1[C@@H](O)[C@@H](O)CN2CC[C@H](O)[C@@H]12 [L-1,6-diepicastanospermine]
- HIV inhibitory / antiviral activity (HIV; literature): neither the epimer L-1,6-diepicastanospermine nor the stereoisomer of castanospermine, L-6-epicastanospermine, were found to be inhibitory

Compound: O[C@@H]1[C@@H](O)[C@@H](O)CN2CC[C@@H](O)[C@@H]12 [L-6-epicastanospermine]
- HIV inhibitory / antiviral activity (HIV; literature): neither the epimer L-1,6-diepicastanospermine nor the stereoisomer of castanospermine, L-6-epicastanospermine, were found to be inhibitory

Compound: CN1C[C@H](O)[C@@H](O)[C@H](O)[C@H]1CO [Methyl, N-methyl-deoxynojirimycin, reference compound]
- IC50 (yeast α-glucosidase): 54 µM
- IC50 (almond β-glucosidase [1]; pH 7.4): 102 µM
- Inhibition Index (first, head is drawing 3) (almond β-glucosidase [1]): 3.5
- Inhibition Index (second, head is drawing 4) (almond β-glucosidase [1]): 0.53
- IC50 (almond β-glucosidase [2]): 366 µM
- HIV inhibitory / antiviral activity (HIV; literature): significant antiviral activity
- HIV inhibitory / antiviral activity (HIV; literature, listed as N-methyl derivative of deoxynojirimycin (DNJ)): activity against HIV

Compound: O[C@H]1[C@H](O)[C@@H](O)CN2CC[C@H](O)[C@H]12 [castanospermine]
- HIV inhibitory / antiviral activity (HIV; literature): inhibition of the cytopathic effect (CPE)
- reduction in virion infectivity (HIV; literature): only a modest reduction in virion infectivity
